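These data come from cells grown in 96-well plates and exposed to compound for 48 hours at five concentrations. Abbreviation: GI50, concentration required for 50% inhibition of growth.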 Active and inactive are the calls of the source. No stated cut-off is given here; in the data, active = GI50 up to about 1.1 µM and inactive = higher.
Experiments:
Experiment in all cases: NCI-60 cell line screen, 48 h
HCT-116 = tested on: HCT-116
RXF 393 = tested on: RXF 393
Hs-578T = tested on: Hs-578T
DU-145 = tested on: DU-145
NCI-H460 = tested on: NCI-H460
TK-10 = tested on: TK-10
COLO 205 = tested on: COLO 205
A498 = tested on: A498
HT-29 = tested on: HT-29
UACC-62 = tested on: UACC-62
SK-MEL-28 = tested on: SK-MEL-28
OVCAR-4 = tested on: OVCAR-4
MDA-MB-435 = tested on: MDA-MB-435
U-251 = tested on: U-251
SK-MEL-5 = tested on: SK-MEL-5
NCI-H226 = tested on: NCI-H226
K562 = tested on: K562
T47D = tested on: T47D
MDA-MB-231 = tested on: MDA-MB-231
SK-MEL-2 = tested on: SK-MEL-2

SMILES	GI50 (HCT-116)	GI50 (RXF 393)	GI50 (Hs-578T)	GI50 (DU-145)	GI50 (NCI-H460)	GI50 (TK-10)	GI50 (COLO 205)	GI50 (A498)	GI50 (HT-29)	GI50 (UACC-62)	GI50 (SK-MEL-28)	GI50 (OVCAR-4)	GI50 (MDA-MB-435)	GI50 (U-251)	GI50 (SK-MEL-5)	GI50 (NCI-H226)	GI50 (K562)	GI50 (T47D)	GI50 (MDA-MB-231)	GI50 (SK-MEL-2)
N=C(N)C1CN(CCc2c[nH]cn2)C(=O)NC1=O (stereo not drawn)	> 100 µM (inactive)	> 100 µM (inactive)	> 100 µM (inactive)	> 100 µM (inactive)	> 100 µM (inactive)	> 100 µM (inactive)	> 100 µM (inactive)	> 100 µM (inactive)	> 100 µM (inactive)	> 100 µM (inactive)	> 100 µM (inactive)	> 100 µM (inactive)	> 100 µM (inactive)	> 100 µM (inactive)	> 100 µM (inactive)	–	–	–	–	–
CCOP(=O)(/C=C\n1cnc2c(=O)n(C(C)=O)c(N)nc21)OCC	> 100 µM (inactive)	> 100 µM (inactive)	–	> 100 µM (inactive)	> 100 µM (inactive)	> 100 µM (inactive)	> 100 µM (inactive)	> 100 µM (inactive)	> 100 µM (inactive)	> 100 µM (inactive)	> 100 µM (inactive)	> 100 µM (inactive)	> 100 µM (inactive)	> 100 µM (inactive)	> 100 µM (inactive)	> 100 µM (inactive)	> 100 µM (inactive)	> 100 µM (inactive)	69.7 µM (inactive)	–
NN/C(=N\S(=O)(=O)c1cc2ccccc2s1)Nc1ccc(Cl)cc1	16.9 µM (inactive)	15.5 µM (inactive)	–	17.8 µM (inactive)	18.5 µM (inactive)	23 µM (inactive)	17.3 µM (inactive)	19.9 µM (inactive)	19.9 µM (inactive)	17.5 µM (inactive)	25.1 µM (inactive)	17.5 µM (inactive)	–	17.7 µM (inactive)	17.9 µM (inactive)	19.3 µM (inactive)	13.3 µM (inactive)	17.8 µM (inactive)	20.1 µM (inactive)	18.1 µM (inactive)
COCOc1ccc(C(=O)C(C)c2ccc(OCOC)cc2OCOC)c(O)c1 (stereo not drawn)	> 100 µM (inactive)	37.2 µM (inactive)	–	> 100 µM (inactive)	> 100 µM (inactive)	> 100 µM (inactive)	> 100 µM (inactive)	> 100 µM (inactive)	> 100 µM (inactive)	> 100 µM (inactive)	> 100 µM (inactive)	> 100 µM (inactive)	71.3 µM (inactive)	> 100 µM (inactive)	37 µM (inactive)	–	–	–	–	–
Cc1nn(C)c2nc3ccc(Cl)cc3c(-c3ccccc3)c12	> 100 µM (inactive)	> 100 µM (inactive)	–	> 100 µM (inactive)	> 100 µM (inactive)	–	> 100 µM (inactive)	> 100 µM (inactive)	> 100 µM (inactive)	> 100 µM (inactive)	> 100 µM (inactive)	> 100 µM (inactive)	> 100 µM (inactive)	> 100 µM (inactive)	–	> 100 µM (inactive)	> 100 µM (inactive)	> 100 µM (inactive)	> 100 µM (inactive)	> 100 µM (inactive)
Cc1ccc2oc(=O)c(C(=O)Nc3nc(C45CC6CC(CC(C6)C4)C5)cs3)cc2c1	> 100 µM (inactive)	> 100 µM (inactive)	> 100 µM (inactive)	> 100 µM (inactive)	> 100 µM (inactive)	–	> 100 µM (inactive)	> 100 µM (inactive)	> 100 µM (inactive)	–	> 100 µM (inactive)	> 100 µM (inactive)	> 100 µM (inactive)	> 100 µM (inactive)	> 100 µM (inactive)	> 100 µM (inactive)	> 100 µM (inactive)	–	> 100 µM (inactive)	–
Cc1ccc2c(c1)Nc1cc(C(F)(F)F)ccc1[PH]2=O (stereo not drawn)	42.2 µM (inactive)	23.2 µM (inactive)	–	45.6 µM (inactive)	27.7 µM (inactive)	57.9 µM (inactive)	16.1 µM (inactive)	9.53 µM (inactive)	21.9 µM (inactive)	10.5 µM (inactive)	78.5 µM (inactive)	11.6 µM (inactive)	37.6 µM (inactive)	27.2 µM (inactive)	15.3 µM (inactive)	21.3 µM (inactive)	13.1 µM (inactive)	27.6 µM (inactive)	13.7 µM (inactive)	31 µM (inactive)
CN(C)CCNC(=O)c1ccc2nc3c(nc2c1)C(=O)c1ccccc1-3	45.9 µM (inactive)	85.5 µM (inactive)	52.2 µM (inactive)	> 100 µM (inactive)	18.5 µM (inactive)	> 100 µM (inactive)	34.6 µM (inactive)	> 100 µM (inactive)	26.4 µM (inactive)	46.5 µM (inactive)	> 100 µM (inactive)	32.8 µM (inactive)	26 µM (inactive)	24.2 µM (inactive)	17.9 µM (inactive)	–	–	–	–	–
Cc1cccc(NS(=O)(=O)c2ccc(/N=N/c3c(O)c(C(=O)O)cc4ccccc34)cc2)n1	> 100 µM (inactive)	> 100 µM (inactive)	> 100 µM (inactive)	–	> 100 µM (inactive)	> 100 µM (inactive)	> 100 µM (inactive)	–	> 100 µM (inactive)	> 100 µM (inactive)	> 100 µM (inactive)	> 100 µM (inactive)	> 100 µM (inactive)	> 100 µM (inactive)	> 100 µM (inactive)	> 100 µM (inactive)	> 100 µM (inactive)	–	> 100 µM (inactive)	> 100 µM (inactive)
Cc1ccccc1-n1c(CCl)nc2ccc(Br)cc2c1=O	9.53 µM (inactive)	10.2 µM (inactive)	–	–	13.5 µM (inactive)	24.7 µM (inactive)	13.4 µM (inactive)	30.1 µM (inactive)	4.29 µM (inactive)	4.4 µM (inactive)	17.5 µM (inactive)	14.8 µM (inactive)	–	13.2 µM (inactive)	8.17 µM (inactive)	8.87 µM (inactive)	0.354 µM (active)	–	–	14.6 µM (inactive)
CC(=O)[C@H]1[C@H](O)C[C@@]2(C)[C@@H]3CCc4cc(O)c(OC5OC(CO)C(O)C(O)C5O)cc4C3(C)C(=O)C[C@]12C (stereo partly drawn)	> 100 µM (inactive)	> 100 µM (inactive)	–	> 100 µM (inactive)	> 100 µM (inactive)	> 100 µM (inactive)	> 100 µM (inactive)	> 100 µM (inactive)	> 100 µM (inactive)	> 100 µM (inactive)	> 100 µM (inactive)	> 100 µM (inactive)	> 100 µM (inactive)	> 100 µM (inactive)	> 100 µM (inactive)	> 100 µM (inactive)	> 100 µM (inactive)	> 100 µM (inactive)	> 100 µM (inactive)	> 100 µM (inactive)
C=C(C)[C@@H]1CC[C@@]2(C)[C@H]1[C@H]1CCC3[C@@]4(C)CC[C@H](O)C(C)(C)[C@@H]4CC[C@@]3(C)[C@]1(C)C[C@@H]2O (stereo partly drawn) [CALENDULADIOL]	43.5 µM (inactive)	25.9 µM (inactive)	–	74.8 µM (inactive)	23 µM (inactive)	> 100 µM (inactive)	–	> 100 µM (inactive)	24.4 µM (inactive)	–	> 100 µM (inactive)	–	23.1 µM (inactive)	25.3 µM (inactive)	19.1 µM (inactive)	> 100 µM (inactive)	6.61 µM (inactive)	> 100 µM (inactive)	46.6 µM (inactive)	–
